Data: USRE47078E1, “Polymorphic forms of N-[4-(trifluoromethyl)benzyl]-4-methoxybutyramide” (Laboratorio Farmaceutico C.T. S.R.L., priority 2007, dated 2018)
Converted amounts (≈) assume the structure as drawn.

Legend:
Rat = conditions: compared with GHB, according to EP 0 932 597 B1; cited from earlier work
[1] = Solubility of the polymorphs at different pH (HPLC assay); type: physicochemical
Experimental: Both samples of powder (Form A and Form B) were used in order to evaluate the solubility properties of the two polymorphs at different pH.
The two samples were tested in the following pH conditions: • Hydrochloric acid buffer at pH=1.2 • Acetic acid at pH=3.0 • Phosphate buffer at pH=3.0 • Phosphate buffer at pH=4.6 • Phosphate buffer at pH=6.0 • Phosphate buffer at pH=7.4 • Alkaline phosphate buffer at pH=8.0
0.5 g of each samples were dissolved in a glass flask using 100 ml of the appropriate buffer. The two samples were then kept under stirring for 30 minutes. If the samples were completed dissolved, 1 additional gram was added in the flask and stirred for 30 minutes. The procedure was repeated till the presence of undissolved product in the bottom of the flask. After such a dissolution procedure, the samples were stored for 24 hours and then the dissolved amounts of Form A and Form B, respectively, were determined by HPLC assay.

[2] = Thermodynamic stability / interconversion of the polymorphs; type: physicochemical

## COCCCC(=O)NCc1ccc(C(F)(F)F)cc1 [N-[4-(trifluoromethyl)benzyl]-4-methoxybutyramide]
Rat
  Potency and duration of action on motor activity: better than GHB

## COCCCC(=O)NCc1ccc(C(F)(F)F)cc1 [Polymorphic Form B, N-[4-(trifluoromethyl)benzyl]-4-methoxybutyramide]
[1]; Water
  Solubility, After 24 hours: 162.64 µg/mL (≈ 591 µM)
  Solubility, Initial evaluation: 125.44 µg/mL (≈ 456 µM)
[1]; dissolution tests on each polymorph
  Differences in solubility / dissolution properties between the two forms: have not shown differences in the solubility properties
[1]; pH 1.2
  Solubility, After 24 hours: 164.47 µg/mL (≈ 597 µM)
  Solubility, Initial evaluation: 136.12 µg/mL (≈ 494 µM)
[1]; pH 3.0 (acetic acid)
  Solubility, After 24 hours: 164.84 µg/mL (≈ 599 µM)
  Solubility, Initial evaluation: 143.69 µg/mL (≈ 522 µM)
[1]; pH 3.0 (phosphate buffer)
  Solubility, After 24 hours: 156.73 µg/mL (≈ 569 µM)
  Solubility, Initial evaluation: 126.87 µg/mL (≈ 461 µM)
[1]; pH 4.6
  Solubility, After 24 hours: 147.14 µg/mL (≈ 535 µM)
  Solubility, Initial evaluation: 129.35 µg/mL (≈ 470 µM)
[1]; pH 6.0
  Solubility, After 24 hours: 143.2 µg/mL (≈ 520 µM)
  Solubility, Initial evaluation: 125.95 µg/mL (≈ 458 µM)
[1]; pH 6.8
  Solubility, After 24 hours: 146.25 µg/mL (≈ 531 µM)
  Solubility, Initial evaluation: 131.46 µg/mL (≈ 478 µM)
[1]; pH 7.4
  Solubility, After 24 hours: 143.79 µg/mL (≈ 522 µM)
  Solubility, Initial evaluation: 113.60 µg/mL (≈ 413 µM)
[1]; pH 8.0
  Solubility, After 24 hours: 146.25 µg/mL (≈ 531 µM)
  Solubility, Initial evaluation: 130.61 µg/mL (≈ 474 µM)
[2]
  Thermodynamic stability, conversion of one form into the other: thermodynamically stable, with no conversion of one into the other
